Source: patent US12018084B2, “Anti-CXCR2 antibodies and uses thereof” (Cephalon LLC, priority 2018, dated 2024)
Blank lines part the entries; values can stand above or below the compound they belong to.

Columns and labels:
CXCR1 = target: T1, CXCR1 (Homo sapiens, UniProt P25024); settings: selectivity versus CXCR2; cited from earlier work
T1 sequence (P25024 1-350): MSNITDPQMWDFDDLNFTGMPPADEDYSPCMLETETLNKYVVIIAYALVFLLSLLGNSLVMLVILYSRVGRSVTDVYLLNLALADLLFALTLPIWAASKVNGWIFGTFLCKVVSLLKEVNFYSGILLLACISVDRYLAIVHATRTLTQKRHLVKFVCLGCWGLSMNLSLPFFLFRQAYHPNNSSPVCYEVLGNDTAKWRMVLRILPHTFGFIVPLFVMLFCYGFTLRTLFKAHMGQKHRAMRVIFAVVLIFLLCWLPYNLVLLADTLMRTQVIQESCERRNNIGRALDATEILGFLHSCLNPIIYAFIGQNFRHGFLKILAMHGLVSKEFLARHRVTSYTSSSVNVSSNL

CCR2b receptors = target: T2, CCR2b receptors (Homo sapiens, UniProt P41597); settings: selectivity versus CXCR2; cited from earlier work
T2 sequence (P41597 1-360 isoform P41597-2): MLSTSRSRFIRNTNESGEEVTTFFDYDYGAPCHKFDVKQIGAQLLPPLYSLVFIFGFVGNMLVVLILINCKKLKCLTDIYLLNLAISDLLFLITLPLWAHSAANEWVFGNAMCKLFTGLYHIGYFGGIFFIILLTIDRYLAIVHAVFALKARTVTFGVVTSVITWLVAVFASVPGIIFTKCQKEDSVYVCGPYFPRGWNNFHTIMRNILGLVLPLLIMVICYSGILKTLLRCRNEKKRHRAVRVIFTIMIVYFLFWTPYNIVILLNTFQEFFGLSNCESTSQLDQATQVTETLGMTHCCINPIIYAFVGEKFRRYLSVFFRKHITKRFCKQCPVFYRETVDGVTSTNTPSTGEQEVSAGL

CD11b expression = settings: cited from earlier work
Human CXCR2 [1] = target: T3, Human CXCR2 (Homo sapiens, UniProt P25025); test: Calcium flux assay, HTS002C-CHEMISCREEN human CXCR2 calcium-optimized cell line; type: cell-based; settings: for EC50: human agonist potency
T3 sequence (P25025 1-360): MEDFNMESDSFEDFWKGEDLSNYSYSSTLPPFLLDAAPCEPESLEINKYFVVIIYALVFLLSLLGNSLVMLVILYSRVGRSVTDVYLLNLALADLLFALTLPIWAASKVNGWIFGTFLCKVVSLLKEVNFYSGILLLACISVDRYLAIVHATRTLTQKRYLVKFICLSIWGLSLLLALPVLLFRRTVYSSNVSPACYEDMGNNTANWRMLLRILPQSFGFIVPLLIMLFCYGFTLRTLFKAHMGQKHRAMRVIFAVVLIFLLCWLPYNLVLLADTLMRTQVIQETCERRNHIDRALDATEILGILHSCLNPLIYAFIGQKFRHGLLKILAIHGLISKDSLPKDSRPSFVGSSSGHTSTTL
Protocol: One of the signaling pathways downstream of CXCR2 activation that has a role in cell chemotaxis is characterized by calcium mobilization (flux). The ability of BKO-4A8-101c to inhibit human CXCR2 ligand-induced calcium flux was tested in the commercially available HTS002C-CHEMISCREEN™ human CXCR2 chemokine receptor calcium-optimized cell line.
The Fluo-4 NW calcium assay kit (Life Technologies) was used according to manufacturer's protocol for in-cell measurement of calcium mobilization, which was read using a FLIPR Tetra high-throughput cellular screening system (Molecular Devices). The peak response minus the basal response from each well was used to determine inhibition dose response curves fitting a four-parameter logistic equation and IC50 values.

[2] = test system: neutrophil surface expression of CD11b; settings: cited from earlier work
COPD = settings: in vivo; cited from earlier work
Human CXCR2 [3] = target: T3, Human CXCR2; test: Tango CXCR2-bla U2OS cell-based β-arrestin recruitment assay; parameters: The beta-arrestin/TEV protease fusion and the beta-lactamase reporter are separate parts of the cell line; settings: for EC50: human agonist potency
Text: Cells were thawed, propagated, cultured and frozen according to the manufacturer's directions.
Preparation of Tango™ CXCR2-bla U2OS cells for use in cell-based assays: The manufacturer's protocol was altered to make use of 96-well plates instead of 384-well plates. Briefly, dividing cells were harvested one day prior to use. Cells were harvested and resuspended in assay medium (100% FreeStyle™ Expression Medium; Life Technologies; Cat #12338-018) at a viable cell density of 312,500 cells/mL. 128 μL of cell suspension was added per well in 96-well black-walled, clear bottom tissue culture-treated plates. Cells were incubated for 16-20 hrs at 37° C. in an atmosphere of 5% CO2 prior to use in assays.
Tango™ assay procedure: Assays were set up and run as described in the manufacturer's protocol. For antagonist assays, agonists were used at concentrations in the EC50-EC80 range. Assays were read using a FlexStation® 3 (Molecular Devices) fluorescence plate reader configured with the parameters given in Table 4. The blue/green emission ratio for each well was calculated by dividing the blue emission values by the green emission values. All inhibition curves were fitted using a four-parameter dose-response using GraphPad Prism™ (Version 7.01).
The Human CXCR2 Tango™ cell line was used to assess the ability of antibody BKO-4A8-101c to inhibit β-arrestin recruitment to agonist-activated CXCR2. All human ELR+ chemokine CXCR2 ligands were tested in antagonist dose response assays using calculated EC50 values of agonist.
The commercially available reporter cell line Tango™ CXCR2-bla U2OS (ThermoFisher Scientific) was used to assess the ability of the anti-CXCR2 antibodies to inhibit β-arrestin recruitment to agonist-activated CXCR2. Agonists were provided at their assay EC50 concentration for antagonist assays.

[4] = test system: mouse model of severe asthma; settings: pre-treatment with 10 and 30 mg/kg; not significantly different from HDM-vehicle; cited from earlier work

Compound: C[C@@H](Oc1cc(NS(=O)(=O)N2CCC2)nc(SCc2cccc(F)c2F)n1)[C@@H](O)CO [AZD5069]
- fold less potent at CXCR1 (CXCR1): > 150 fold
- fold less potent at CCR2b receptors (CCR2b receptors): > 150 fold
- effect on C5a, LTB4 or fMLP induced CD11b expression (CD11b expression): no effect

- CXCL1 Maximal Inhibition % (Human CXCR2 [1]; CXCL1 at EC50): 95%
- CXCL8 Maximal Inhibition % (Human CXCR2 [1]; CXCL8 at EC50): 97%
- CXCL1 Maximal Inhibition % (Human CXCR2 [3]; CXCL1 at EC50, comparison with comparators): 99%
- CXCL5 Maximal Inhibition % (Human CXCR2 [3]; CXCL5 at EC50, comparison with comparators): 99%
- CXCL8 Maximal Inhibition % (Human CXCR2 [3]; CXCL8 at EC50, comparison with comparators): 99%
Compound: Cc1c(F)cccc1NC(=O)Nc1ccc(Cl)c(S(=O)(=O)[C@H]2CCCNC2)c1O [Antagonist 5, Danirixin]
- CD11b upregulation on neutrophils [2]: block CD11b upregulation
- IC50, CXCL1-induced ex vivo neutrophil surface expression of CD11b [2]: 0.069 µg/mL
- IC90, CXCL1-induced ex vivo neutrophil surface expression of CD11b ([2]; range 158-1080 ng/ml): 0.62 µg/mL
- IC90 ([2]; range 356-2443 nM, read-out: IC90, CXCL1-induced ex vivo neutrophil surface expression of CD11b): 1400 nM
- IC50 ([2]; read-out: IC50, CXCL1-induced ex vivo neutrophil surface expression of CD11b): 156 nM
- primary end points in a Phase IIb trial for COPD (COPD): failed to meet primary end points

Compound: CC[C@@H](Nc1c(Nc2cccc(C(=O)N(C)C)c2O)c(=O)c1=O)c1ccc(C)o1 [Antagonist 6, SCH 527123]
- inhibition of neutrophil cell numbers in the BAL (maximum) [4]: ≤ 30%

- EC50 (Human CXCR2 [1]): 2.62 nM
- EC50 (Human CXCR2 [3]): 2.3 nM
Compound: CXCL1: human agonist chemokine, Miltenyi Biotec 130-108-974 [reference compound]

- EC50 (Human CXCR2 [1]): 37 nM
- EC50 (Human CXCR2 [3]): 33.3 nM
Compound: CXCL2: human agonist chemokine, R&D Systems 276-GB [reference compound]

- EC50 (Human CXCR2 [1]): 12.2 nM
- EC50 (Human CXCR2 [3]): 11.9 nM
Compound: CXCL3: human agonist chemokine, R&D Systems 277-GG [reference compound]

- EC50 (Human CXCR2 [1]): 39.2 nM
- EC50 (Human CXCR2 [3]): 97.7 nM
Compound: CXCL5: human agonist chemokine, R&D Systems 254-XB [reference compound]

- EC50 (Human CXCR2 [1]): 28.9 nM
- EC50 (Human CXCR2 [3]): 9.4 nM
Compound: CXCL6: human agonist chemokine, R&D Systems 333-GC [reference compound]

- EC50 (Human CXCR2 [1]): 3.2 nM
Compound: CXCL8: human agonist chemokine, Miltenyi Biotec 130-108-979 [reference compound]
